{"source": "patent US9459246B2", "about": "“Induced intercellular communication” (Nodality, Inc., priority 2009, dated 2016)", "molecules": {"B1": {"name": "IL-27: cytokine used as modulator (protein, UniProt Q8NEV9 29-243; Q14213 21-229, looked up)", "Interleukin-27 subunit alpha": "FPRPPGRPQLSLQELRREFTVSLHLARKLLSEVRGQAHRFAESHLPGVNLYLLPLGEQLPDVSLTFQAWRRLSDPERLCFISTTLQPFHALLGGLGTQGRWTNMERMQLWAMRLDLRDLQRHLRFQVLAAGFNLPEEEEEEEEEEEEERKGLLPGALGSALQGPAQVSWPQLLSTYRLLHSLELVLSRAVRELLLLSKAGHSVWPLGFPTLSPQP", "Interleukin-27 subunit beta": "RKGPPAALTLPRVQCRASRYPIAVDCSWTLPPAPNSTSPVSFIATYRLGMAARGHSWPCLQQTPTSTSCTITDVQLFSMAPYVLNVTAVHPWGSSSSFVPFITEHIIKPDPPEGVRLSPLAERQLQVQWEPPGSWPFPEIFSLKYWIRYKRQGAARFHRVGPIEATSFILRAVRPRARYYVQVAAQDLTDYGELSDWSLPATATMSLGK"}, "B2": {"name": "IFNγ: cytokine used as modulator (protein, UniProt P01579 24-161, looked up)", "Interferon gamma": "QDPYVKEAENLKKYFNAGHSDVADNGTLFLGILKNWKEESDRKIMQSQIVSFYFKLFKNFKDDQSIQKSVETIKEDMNVKFFNSNKKKRDDFEKLTNYSVTDLNVQRKAIHELIQVMAELSPAAKTGKRKRSQMLFRG"}}, "key": {"[1]": {"system": "AML cells", "test": "SCNP of basal and growth-factor modulated signaling in AML patient sample with kinase inhibitors (Example 17, Arm #1)", "format": "cell-based, human", "conditions": "patient #1910-017", "source_text": "This study used peripheral blood or bone marrow samples (n=9), which had been previously ficoll separated and cryopreserved. Patient characteristics are shown Table 8. One cryovial per patient was used. Samples were thawed and centrifuged over ficoll to remove dead cells and debris.\nSamples were split to perform the following: Arm #1 assessed basal and modulated signaling in the JAK/STAT, PI3K/mTor, and MEK/ERK pathways in the presence and absence of specific kinase inhibitors. Kinase inhibitors were added 1 hr before the addition of the signaling stimulus. Signaling was induced by individual addition of stem cell factor, Flt3 ligand, G-CSF, IL-3, or thrombopoietin (TPO) for a short period of time (5-15 min). Cells were then fixed, permeabilized, and stained with a cocktail of cell surface and phospho-specific antibodies to measure signaling in multiple cell types. Signaling data is calculated in each cell type using a fold-change metric comparing each condition to its basal state: example: (stimulated^+/−inhibitor)/(unstimulated). Also, cells with an apoptotic phenotype were excluded from the signaling analysis by gating."}, "[2]": {"system": "AML cells", "test": "Cytotoxic and cytostatic impact of drugs on cultured AML patient cells (Example 17, Arm #2)", "format": "cell-based, human", "conditions": "patient #1910-017, 48 hours", "quoted_text": "This study used peripheral blood or bone marrow samples (n=9), which had been previously ficoll separated and cryopreserved. […] One cryovial per patient was used. Samples were thawed and centrifuged over ficoll to remove dead cells and debris. […] After 2 days the cells were then distributed into wells containing various drugs, wherein the cells were cultured for 48 hours. The cultures were fixed, permeabilized, and stained with a cocktail of antibodies to measure complete cell death, apoptosis, S/G2 phase, M-Phase, and DNA damage. These readouts were also obstained from samples cultured separately with individual growth factors (no drugs) for 4 days."}, "[3]": {"system": "PBMCs", "format": "cell-based, human", "conditions": "PBMC, 24 hours"}, "[4]": {"system": "PBMCs", "test": "SCNP intracellular signaling readouts in PBMCs treated 24 hours with modulator (SAg or LPS) plus inhibitor (Example 9, FIGS. 18-21)", "format": "cell-based, human"}, "[5]": {"system": "peripheral blood mononuclear cells (PBMC)", "test": "SCNP assay of SAg-modulated PBMC signaling over time, with or without cytokine pathway inhibitors (Examples 10, 11, 13)", "format": "cell-based, human"}, "[6]": {"system": "monocytes in PBMC", "test": "Flow cytometry of intracellular cytokines in SAg-modulated PBMC with inhibitors (Example 12)", "format": "cell-based, human"}, "[7]": {"system": "PBMCs"}, "[8]": {"system": "PBMCs", "test": "SCNP signaling in LPS-treated PBMCs with inhibitors (Example 14, FIGS. 22, 23)", "conditions": "LPS plus inhibitor"}, "[9]": {"system": "whole blood", "test": "SCNP of cytokine-induced JAK/STAT signaling in whole blood of healthy donors (Example 4)", "format": "cell-based, human", "procedure": "Method: Whole blood from 11 healthy donors (20-65 yrs, 7 males, 4 females, 8 Caucasians, 2 Hispanics, 1 East Asian) was stimulated at 37° C. in 96-well plates with a low, medium, and high dose of GM-CSF, IFN-α, IL-27 and IL-6, each added separately, as described in Example 5. For each dose, a stimulation time course was run with 6 time points between 3 and 45 minutes. […] The SCNP assay was performed using a fluorophore-labeled antibody cocktail to simultaneously measure signaling in six distinct cell populations, including: neutrophils, CD20+ B cells, CD3+CD4+T cells, CD3+CD4− T cells (CD8 enriched), CD3-CD20-lymphocytes (NK cell enriched), and CD14+ monocytes. The median fluorescent intensity of phospho (p)-STAT1(Y701), p-STAT3(Y705), and p-STAT5(Y694) were measured in each defined cell population for each experimental condition."}, "[10]": {"system": "PBMCs", "test": "SCNP of IFN-α signaling in PBMCs from healthy donors (Examples 5 and 15)", "format": "cell-based, human", "procedure": "(§1) Methods: IFN-α-mediated signaling responses were measured by SCNP in PBMC samples from 12 healthy donors. PBMCs were processed for flow cytometry by fixation and permeabilization followed by incubation with fluorochrome-conjugated antibodies that recognize extracellular lineage markers and intracellular signaling molecules. The levels of several phospho-proteins (p-Stat1, p-Stat3, p-Stat4, p-Stat5, p-Stat6, and p-p38) were measured in multiple cell populations (CD14+ monocytes, CD20+ B cells, CD4+ CD3+ T cells, and CD4− CD3+ T cells) at 15 minutes, 1, 2 and 4 hours post IFN-α exposure as described in Example 6.\nas §1, with “IFN-α-mediated” for “Methods: IFN-α-mediated”"}, "[11]": {"system": "PBMCs", "test": "SCNP of immunomodulator signaling nodes in PBMC subpopulations of 60 healthy donors (Example 16)", "format": "cell-based, human", "conditions": "15 min", "quoted_text": "Cryopreserved PBMC samples were thawed at 37° C. and resuspended in RPMI 1% FBS before staining with amine aqua viability dye (Invitrogen, Carlsbad, Calif.). Cells were resuspended in RPMI 10% FBS, aliquoted to 100,000 cells per well of 96-well plates, and rested for 2 h at 37° C. prior to 15 min 37° C. incubation with the following modulators: 1000 IU/ml IFNα (PBL, Piscataqay, N.J.); 250 ng/ml IFNγ, 50 ng/ml IL4, 50 ng/ml IL10, α-IgD 5 m/ml (BD, San Jose, Calif.); 50 ng/ml IL2, 50 ng/ml IL6, 50 ng/ml IL27, CD40L 0.5 μg/ml (R&D, Minneapolis, Minn.); R848 5 μg/ml (Invivogen, San Diego, Calif.); LPS 1 μg/ml, PMA 40 nM (Sigma Aldrich, St. Louis, Mo.). After exposure to modulators, cells were fixed with paraformaldehyde and permeabilized with 100% ice-cold methanol as previously described (5). […]\nFlow cytometry data was acquired using FACS DIVA software (BD, San Jose, Calif.) on two LSRII Flow Cytometers (BD, San Jose, Calif.). All flow cytometry data were analyzed with WinList (Verity House Software, Topsham, Me.). […]\nTwo different metrics are utilized in this study to measure the levels of intracellular signaling proteins in either the unmodulated state or in response to modulation. […] The Equivalent Number of Reference Fluorophores (ERFs), fluorescence measurements calibrated by rainbow calibration particles on each 96-well plate, serve as a basis for all metric calculations (6, 7)."}}, "note": "Values joined by “and” are separate entries in the source; they are usually repeats but may differ in a detail not shown here. Identical values can stand only once."}
{"molecule": "Cn1cnc2c(F)c(Nc3ccc(Br)cc3Cl)c(C(=O)NOCCO)cc21", "note": "[AZD-6244]", "values": [{"measurement": "SCF induced pAKT", "setting": "[1]", "value": "no inhibition"}, {"measurement": "SCF induced pS6", "setting": "[1]", "value": "partial inhibition"}, {"measurement": "SCF-pERK", "setting": "[1]", "value": "complete inhibition"}]}
{"molecule": "Nc1ccn([C@@H]2O[C@H](CO)[C@@H](O)[C@@H]2O)c(=O)n1", "note": "[AraC]", "values": [{"measurement": "drug induced apoptosis of myeloid cells", "setting": "[2]", "value": "resisted apoptosis"}]}
{"molecule": "Cn1c(=O)n(-c2ccc(C(C)(C)C#N)cc2)c2c3cc(-c4cnc5ccccc5c4)ccc3ncc21", "note": "[BEZ235]", "values": [{"measurement": "SCF induced pAKT", "setting": "[1]", "value": "complete inhibition"}, {"measurement": "SCF induced pS6", "setting": "[1]", "value": "partial inhibition"}]}
{"molecule": "C[C@@H]1CCN(C(=O)CC#N)C[C@@H]1N(C)c1ncnc2[nH]ccc12", "note": "[CP-690550]", "values": [{"measurement": "IL-3 signaling", "setting": "[1]", "value": "complete inhibition"}, {"measurement": "TPO signaling", "setting": "[1]", "value": "partial inhibition"}, {"measurement": "high basal level of p-STAT5 signaling", "setting": "[1]", "value": "inhibited"}]}
{"molecule": "CS(=O)(=O)N1CCN(Cc2cc3nc(-c4cccc5[nH]ncc45)nc(N4CCOCC4)c3s2)CC1", "note": "[GDC-0941]", "values": [{"measurement": "SCF induced pAKT", "setting": "[1]", "value": "partial inhibition"}, {"measurement": "SCF induced pS6", "setting": "[1]", "value": "partial inhibition"}]}
{"molecule": "C[C@@H]1CCN(C(=O)CC#N)C[C@@H]1N(C)c1ncnc2[nH]ccc12", "note": "[Tofacitinib]", "values": [{"measurement": "B cell IL-6 production", "setting": "[3]; SAg plus inhibitor", "value": "blocked"}, {"measurement": "T cell cytokine production (IL-2 and TNF by CD4+ cells)", "setting": "[3]; SAg plus inhibitor", "value": "blocked"}, {"measurement": "IL-6 production by monocytes", "setting": "[3]; inhibitor added", "value": "induced"}, {"measurement": "TNFα production", "setting": "[3]; monocytes, LPS plus inhibitor", "value": "blocked"}, {"measurement": "STAT signaling / STAT phosphorylation", "setting": "[4]; LPS modulation, FIG. 21", "value": "inhibited"}, {"measurement": "all measured signaling", "setting": "[4]; SAg modulation, FIG. 19", "value": "inhibited all signaling except for monocyte p-STAT6"}, {"measurement": "lymphocyte signaling", "setting": "[4]; SAg modulation, FIG. 20", "value": "inhibited"}, {"measurement": "PI3K pathway activation in lymphocytes", "setting": "[5]", "value": "blocked"}, {"measurement": "STAT induction evoked by SAg modulation", "setting": "[5]", "value": "completely abrogated"}, {"measurement": "overall inhibition of SAg-evoked signaling", "setting": "[5]", "value": "broad and potent inhibition of the JAK/STAT pathway and down-stream signaling"}, {"measurement": "p-STAT5 and PI3K pathway signaling in CD4+ T cells", "setting": "[5]", "value": "this inhibition pattern extended to CD4+ T cells"}, {"measurement": "p-STAT5 and PI3K pathway signaling in CD4− T cells", "setting": "[5]", "value": "inhibited"}, {"measurement": "p-STAT levels in CD4− T cells", "setting": "[5]", "value": "restored p-STAT levels to the unmodulated condition"}, {"measurement": "phosphorylation of STAT1 and STAT5", "setting": "[5]", "value": "weakly reduced"}, {"measurement": "IL-6 in monocytes at other time points", "setting": "[6]", "value": "induced IL-6 at the 2 hour and 24 hour time points"}, {"measurement": "frequency of monocytes expressing TNFα", "setting": "[6]", "value": 46, "unit": "%"}, {"measurement": "monocytes expressing IL-6 (IL-6+)", "setting": "[6]", "value": 44, "unit": "%"}, {"measurement": "inhibition", "setting": "[7]", "value": "102% and 79%"}, {"measurement": "p-STAT1 and p-STAT3 induction in lymphocytes", "setting": "[8]; 2 hours", "value": "completed abrogated"}, {"measurement": "p-STAT3 in lymphocytes", "setting": "[8]; later time points", "value": "partially inhibited"}]}
{"molecule": "CC(C)C[C@H](NC(=O)[C@H](Cc1ccccc1)NC(=O)c1cnccn1)B(O)O", "note": "[bortezomib]", "values": [{"measurement": "cell death and cytostasis", "setting": "[2]", "value": "induced considerable levels of cell death and cytostasis"}]}
{"molecule": "IFN-α", "values": [{"measurement": "time of peak activation of all 3 STAT proteins", "setting": "[9]; all cell subsets", "value": 10, "unit": "min"}, {"measurement": "peak response for activation of p-Stat4, p-Stat6, and p-p38", "setting": "[10]; majority of cell types tested", "value": 1, "unit": "h"}, {"measurement": "peak response for activation of p-Stat1, p-Stat3, and p-Stat5", "setting": "[10]; most of the cell types", "value": 15, "unit": "min"}, {"measurement": "pStat activation across immune cell subpopulations", "setting": "[11]; 1000 IU/ml", "value": "at least one pStat protein was activated in response to IFNα in all of the immune cell subpopulations"}]}
{"molecule": "IL-6: cytokine used as modulator", "values": [{"measurement": "time of peak p-STAT1 and p-STAT5", "setting": "[9]; CD4+ T cells and monocytes", "value": "10 to 15", "unit": "min"}, {"measurement": "time of peak p-STAT3 levels", "setting": "[9]; CD4+ T cells and monocytes", "value": 3, "unit": "min"}]}
{"molecule": "B1", "values": [{"measurement": "time of peak activation of p-STAT1 and p-STAT3", "setting": "[9]; T cell subsets, B cells, and monocytes", "value": 30, "unit": "min"}]}
{"molecule": "B2", "values": [{"measurement": "pStat1 level by cell type", "setting": "[11]; 250 ng/ml", "value": "produced the highest level of pStat1 in monocytes, lower levels in B cells, and a much weaker pStat1 response in T cells"}]}
